Measurements published in patent publication US12134788B2, “Engineered prephenate dehydrogenases and arogenate dehydrogenases and methods of using the same” (Wisconsin Alumni Research Foundation, priority 2017, dated 2024).

Tests used:
[1] = biological target: Glycine max GmPDH1 variant M219T/N222D (Glycine max, UniProt I1MYY4, M219T/N222D); assay: ADH and PDH assay: steady-state kinetics and Tyr inhibition, GmPDH1 M219T/N222D; assay type: biochemical, Glycine max (soybean); conditions: IC50^Tyr, 0.5 mM NADP^+
Chain of Glycine max GmPDH1 variant M219T/N222D (I1MYY4 1-271 M219T/N222D): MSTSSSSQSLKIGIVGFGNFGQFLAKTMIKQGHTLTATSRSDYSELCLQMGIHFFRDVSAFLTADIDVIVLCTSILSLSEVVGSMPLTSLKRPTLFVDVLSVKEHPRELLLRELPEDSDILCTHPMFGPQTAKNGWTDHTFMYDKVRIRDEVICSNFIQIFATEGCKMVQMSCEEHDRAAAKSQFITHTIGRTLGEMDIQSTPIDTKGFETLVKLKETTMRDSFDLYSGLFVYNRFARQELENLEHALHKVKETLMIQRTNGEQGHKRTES
Protocol: (§1) Kinetic parameters of purified recombinant proteins were determined from assays conducted at varying arogenate (19.5 μM-5 mM) and prephenate concentration (23.4 μM-6 mM). Standard assay conditions were 25 mM HEPES pH 7.6, 50 mM KCl and 10% (v/v) ethylene glycol, and 0.5 mM NADP^+ with varied substrate, concentrations. Reactions were initiated by addition of enzyme and incubated at 37° C. monitored every 10-15 seconds at […] using a microplate reader (Tecan Genios). Kinetic parameters were determined by fitting initial velocity data to the Michaelis-Menten equation using the Origin software (OriginLab).
(§2) Arogenate was prepared by enzymatic conversion of prephenate (Sigma-Aldrich) as previously reported^56. For Tyr inhibition assays, Tyr was dissolved in a slightly basic solution (0.025 N NaOH) due to solubility issues, thus the concentration of lysis buffer was increased to 500 mM HEPES final concentration to buffer against the changes by addition of Tyr in the reaction. Reactions containing varying amounts of Tyr (10 μM-8 mM) with 0.5 mM NADP^+ and either 1 mM arogenate or 0.8 mM prephenate were monitored as above.

[2] = biological target: T1, GmPDH1 (Gm18g02650), soybean (Glycine max) prephenate dehydrogenase, wild type (Glycine max, UniProt I1MYY4); assay: ADH and PDH assay: steady-state kinetics and Tyr inhibition, GmPDH1 wild type; assay type: biochemical
T1 construct: homodimer
T1 sequence (I1MYY4 1-271): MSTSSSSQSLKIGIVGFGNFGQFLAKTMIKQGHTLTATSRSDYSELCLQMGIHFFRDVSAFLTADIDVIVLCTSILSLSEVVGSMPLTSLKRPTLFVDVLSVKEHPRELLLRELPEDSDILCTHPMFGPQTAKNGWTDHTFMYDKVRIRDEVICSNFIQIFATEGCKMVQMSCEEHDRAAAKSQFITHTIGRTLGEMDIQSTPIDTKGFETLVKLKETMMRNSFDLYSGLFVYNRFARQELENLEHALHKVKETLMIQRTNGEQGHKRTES
Protocol: as §1
as §2, with “Reactions containing varying amounts of Tyr (10 μM-8 mM) with 0.5 mM NADP^+ and either 1 mM arogenate or 0.8 mM prephenate were monitored as above.” left out

[3] = biological target: T2, Medicago truncatula MtPDH variant C220D, SEQ ID NO: 1 (Medicago truncatula, UniProt A0A0A0R205, C220D); assay: ADH and PDH assay: steady-state kinetics and Tyr inhibition, MtPDH C220D; assay type: biochemical
T2 sequence (A0A0A0R205 1-268 C220D): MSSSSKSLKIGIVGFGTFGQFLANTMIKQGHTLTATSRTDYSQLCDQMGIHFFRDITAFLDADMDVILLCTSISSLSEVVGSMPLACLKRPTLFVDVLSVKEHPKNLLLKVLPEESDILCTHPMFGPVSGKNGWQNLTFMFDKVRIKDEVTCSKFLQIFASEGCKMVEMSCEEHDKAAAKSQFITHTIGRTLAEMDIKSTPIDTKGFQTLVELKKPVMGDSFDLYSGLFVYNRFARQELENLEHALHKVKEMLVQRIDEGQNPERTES
Protocol: as §1, §2

[4] = biological target: T3, Glycine max GmncADH variant D218N (Glycine max, UniProt I1M7P5, D218N); assay: ADH and PDH assay: steady-state kinetics and Tyr inhibition, GmncADH D218N; assay type: biochemical, Glycine max (soybean); conditions: versus wild-type; ADH activity, 0-8 mM Tyr
T3 construct: D218N by site-directed mutagenesis
T3 sequence (I1M7P5 1-266 D218N): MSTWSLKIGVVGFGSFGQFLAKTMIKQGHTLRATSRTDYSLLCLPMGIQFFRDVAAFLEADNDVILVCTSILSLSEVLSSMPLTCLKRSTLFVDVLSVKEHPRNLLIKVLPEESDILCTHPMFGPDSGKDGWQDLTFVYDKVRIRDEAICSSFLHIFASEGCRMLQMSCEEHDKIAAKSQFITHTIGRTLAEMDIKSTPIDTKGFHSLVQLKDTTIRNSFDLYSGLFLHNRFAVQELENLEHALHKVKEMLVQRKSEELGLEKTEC
Protocol: as §1, §2

[5] = biological target: AtADH2 (At1g15710), Arabidopsis thaliana canonical arogenate dehydrogenase, wild type (Arabidopsis thaliana, UniProt Q9LMR3); assay: Tyr inhibition of AtADH2 wild type; assay type: biochemical; conditions: ADH activity, 0-8 mM L-Tyr
Chain of AtADH2 (At1g15710), Arabidopsis thaliana canonical arogenate dehydrogenase, wild type (Q9LMR3 37-358): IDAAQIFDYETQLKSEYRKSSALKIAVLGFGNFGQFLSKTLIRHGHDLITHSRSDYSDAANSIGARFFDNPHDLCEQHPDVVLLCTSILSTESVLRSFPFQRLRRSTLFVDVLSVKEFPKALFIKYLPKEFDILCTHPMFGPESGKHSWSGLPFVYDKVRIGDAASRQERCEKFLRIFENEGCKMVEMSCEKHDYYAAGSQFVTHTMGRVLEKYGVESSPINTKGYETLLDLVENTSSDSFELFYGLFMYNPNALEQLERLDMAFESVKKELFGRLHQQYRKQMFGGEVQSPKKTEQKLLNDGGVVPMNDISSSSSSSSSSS
Protocol: as §1, §2

[6] = biological target: T4, GmncADH (Gm14g05990), soybean (Glycine max) noncanonical arogenate dehydrogenase, wild type (Glycine max, UniProt I1M7P5); assay: ADH and PDH assay: steady-state kinetics and Tyr inhibition, GmncADH wild type; assay type: biochemical
T4 construct: wild type
T4 sequence (I1M7P5 1-266): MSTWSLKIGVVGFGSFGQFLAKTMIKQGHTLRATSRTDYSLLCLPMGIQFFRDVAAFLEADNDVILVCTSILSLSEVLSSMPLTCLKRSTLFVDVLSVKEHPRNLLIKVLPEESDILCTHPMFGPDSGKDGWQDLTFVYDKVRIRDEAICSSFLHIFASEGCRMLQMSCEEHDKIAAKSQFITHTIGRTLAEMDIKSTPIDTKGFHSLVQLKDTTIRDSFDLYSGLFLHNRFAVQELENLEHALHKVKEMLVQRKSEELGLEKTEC
Protocol: as §1, §2

For `N[C@@H](Cc1ccc(O)cc1)C(=O)O` [Tyr, L-Tyrosine], the IC50 ([1]; substrate arogenate (1 mM)) was 5.9 ± 0.5 mM, the IC50 ([1]; substrate prephenate (0.8 mM)) was 11.1 ± 1.2 mM and the IC50 [2] was 31.3 ± 9.3 mM. For the same molecule, the “feedback inhibition by Tyr” value ([2]; up to 8 mM Tyr in assays) was “insensitive to feedback inhibition by Tyr”, the IC50 [3] was 8.2 ± 0.9 mM and the “sensitivity to Tyr inhibition” value [4] was “significantly less sensitive to Tyr inhibition”. For the same molecule, the IC50 [5] was 0.038 mM, the IC50 [6] was 15.5 ± 0.8 mM and the “IC50 (Tyr), in words” value ([6]; sensitivity to Tyr) was “in the mM range”.
